In patent publication EP0300812A2, “Platinum triamine antitumor agents containing saturated amines” (ENGELHARD CORPORATION, priority 1987, dated 1989):
“And” between values parts separate entries of the source, which are not always exact repeats. Identical values can stand only once.

Tests used:
[1] = tested on: Sarcoma 180 ascites; assay: Sarcoma 180 ascites antitumor screening; assay type: in vivo, Female CFW mice; conditions: for %ILS: ILS ≧ 50% indicates activity; for Surv.: survivors per 6 mice at twice the MST of controls
Procedure: (§1) Each compound was evaluated in at least one of these screens.
Female CFW mice (18 - 25 g) were implanted with 2 x 10⁶ cells ip on day zero. Compounds were administered in 0.5 mL water ip on day one. Groups of 6 mice were used for each test dose as well as controls as defined above. The test was run for twice the MST of the control group, with survivors counted as dying on that day. An ILS of ≧ 50% indicates activity. The tumor line was maintained through weekly transfer of 4 x 10⁶ cells in CFW mice.

[2] = tested on: L1210 Leukemia; assay: L1210 leukemia antitumor screening; assay type: in vivo, Female CDF₁ mice; conditions: for %ILS: ILS ≧ 25% represents activity; for Surv.: survivors per 6 mice at three times the MST of controls
Procedure: as §1
L1210 screening was conducted according to a published method. See Rose, W.C.; Schurig, J.F.; Huftalen, J.B.; Bradner, W.T. Cancer Treat. Rep. […] Female CDF₁ mice (16 - 22 g) were implanted with 1 x 10⁶ tumor cells ip on day zero. Compounds were administered in 0.5 mL water ip on day one. Groups of 6 mice were used for each dose. A control group received only tumor and 0.5 mL water. A positive control group received tumor and 8 mg/kg cisplatin in 0.5 mL of 0.15 M NaCl. The test was terminated after three times the mean survival time (MST) of the control group, surviving mice were counted as dying on that day. Activity was determined based on the percent increase in MST of test mice over controls (%ILS). […] The tumor line was maintained through weekly transfer of 5 x 10⁴ cells in DBA/2 mice.

[3] = S180a, dose 10 mg/kg ip in water on day one
[4] = S180a, dose 20 mg/kg ip in water on day one
[5] = S180a, dose 40 mg/kg ip in water on day one
[6] = S180a, dose 80 mg/kg ip in water on day one
[7] = S180a, dose 160 mg/kg ip in water on day one
[8] = S180a, dose 320 mg/kg ip in water on day one

Compound | %ILS [1, 3] [%] | Surv. ([1]; S180a, dose 10 mg/kg ip) | %ILS [1, 4] [%] | Surv. ([1]; S180a, dose 20 mg/kg ip) | %ILS [1, 5] [%] | Surv. ([1]; S180a, dose 40 mg/kg ip) | %ILS [1, 6] [%] | Surv. ([1]; S180a, dose 80 mg/kg ip) | %ILS [1, 7] [%] | Surv. ([1]; S180a, dose 160 mg/kg ip) | %ILS [1, 8] [%] | Surv. ([1]; S180a, dose 320 mg/kg ip) | also measured
CCCCCCCC[NH2+][Pt-2]([NH3+])([NH3+])[Cl].O=[N+]([O-])[O-] [cis-[Pt(NH3)2(octylamine)Cl]NO3, cis-[Pt(NH₃)₂(octylamine)Cl]NO₃] | 16 | 0/6 | 25 | 0/6 | 22 | 0/6 | -78 | 0/6 | -78 | 0/6 | -95 | 0/6 | activity in the S-180 ascites screen ([1]; statement in words): substantially no activity
CC1CCNCC1.N.N.O=[N+]([O-])[O-].[Cl-].[Pt+2] [cis-[Pt(NH3)2(4-methylpiperidine)Cl]NO3, cis-[Pt(NH₃)₂(4-methylpiperidine)Cl]NO₃] | 4 | 0/6 | 13 | 0/6 | 18 | 0/6 | 76 | 1/6 | 4 | 1/6 | -80 | 0/6 | %ILS ([2]; L1210, dose 10 mg/kg ip in water on day one): 24%; Surv. ([2]; L1210, dose 10 mg/kg ip): 0/6; %ILS ([2]; L1210, dose 20 mg/kg ip in water on day one): 17%; Surv. ([2]; L1210, dose 20 mg/kg ip): 0/6; %ILS ([2]; L1210, dose 40 mg/kg ip in water on day one): 60%; Surv. ([2]; L1210, dose 40 mg/kg ip): 0/6; %ILS ([2]; L1210, dose 80 mg/kg ip in water on day one): 57%; Surv. ([2]; L1210, dose 80 mg/kg ip): 0/6; %ILS ([2]; L1210, dose 160 mg/kg ip in water on day one): -28%; Surv. ([2]; L1210, dose 160 mg/kg ip): 0/6; %ILS ([2]; L1210, dose 320 mg/kg ip in water on day one): -68%; Surv. ([2]; L1210, dose 320 mg/kg ip): 0/6
O=[N+]([O-])[O-].[NH3+][Pt-2]([NH3+])([Cl])[NH2+]CC1CCCCC1 (stereo not drawn) [cis-[Pt(NH₃)₂(cyclohexanemethylamine)Cl]NO₃] | 15 | 0/6 | 22 | 0/6 | 19 | 1/6 | 61 | 0/6 | -78 | 0/6 | -94 | 0/6 | –
cis-[Pt(NH₃)₂Cl₂] [Positive Control, reference compound] | – | – | – | – | – | – | – | – | – | – | – | – | Positive Control %ILS ([1]; S180a, positive control 8 mg/kg cisplatin in 0.15 M NaCl ip): 65% and 80%; Positive Control Surv. ([1]; S180a, positive control 8 mg/kg cisplatin in 0.15 M NaCl ip, survivors per 6 mice): 1/6 and 3/6; Positive Control %ILS ([2]; L1210, positive control 8 mg/kg cisplatin in 0.15 M NaCl ip): 149%; Positive Control Surv. ([2]; L1210, positive control 8 mg/kg cisplatin in 0.15 M NaCl ip, survivors per 6 mice): 2/6
